With O=C(O)[C@@H](CSCc1ccccc1)N1C(=O)C=CC1=O the melting point was 86 to 87 °C. For CCOC(=O)c1cc(O)c2cc3c(O)cc(C(=O)OCC)nc3c(N3CCCCCC3)c2n1, the melting point was 301 to 302 °C. Compound COc1ccc(-n2nnnc2C(F)(F)F)cc1C=O has a melting point of 117 °C. For COC(=O)c1cc(Cl)cc2c1OCC(=O)N2, the melting point was 239 to 241 °C. For O=C(Cc1ccccc1Cl)c1ccc(I)cc1, the melting point was 105 to 106 °C. Work on CCCCC(Oc1ccccc1)C(=O)OC1CC(O)C=C2C=CC(C)C(CCC3CC(O)CC(=O)O3)C21 (mixture of isomers) yielded a melting point of 139 to 141 °C. For CCCC(c1ccc(C(=O)O)cc1)N(CCC)c1nc(-c2ccc(Cl)cc2Cl)c(C)s1 (stereo unspecified), the melting point was 86 °C. CCCCCCCCCCCCCCNC(=O)c1cc(N)cc(C(=O)NCCCCCCCCCCCCCC)c1 gave a melting point of 171 to 178 °C. Work on COc1cc2[nH]c(=O)c(=O)n(C)c2cc1OC yielded a melting point of 308 °C. With COC(=O)CCCCCCCCC=CCCCCCCCCC(=O)OC the melting point was 44 °C. FC(F)(F)CN1CCC(n2ccc3ccccc32)CC1 gave a melting point of 79 to 81 °C. Compound COC(=O)C(CCCCN1C(=O)c2ccccc2C1=O)C(=O)OC has a melting point of 55 to 58 °C. Compound Cc1c(C)c2c(c(C3CC(=O)C=C(O)C3)c1C)OCC2 (stereo unspecified) has a melting point of 264 °C. For COc1nc(-c2ccccc2)c2c(n1)N(c1ccccc1)C(=O)NC2, the melting point was 220 to 222 °C. For c1cnn(Cc2ccc3c(c2)Cc2c(-c4ccsc4)n[nH]c2-3)c1, the melting point was 262 to 270 °C. N#Cc1nn(-c2c(Cl)cc(C(F)(F)F)cc2Cl)c(N)c1C(=O)CBr gave a melting point of 190 to 192 °C. O=C(O)C=Cc1cccc(OCc2nc(-c3ccccc3)c(-c3ccccc3)o2)c1 showed a melting point of 145 to 147 °C. Work on CCOC(=O)C(CC)Sc1nc2c(c(=O)n(CCOC)c(=O)n2C)n1Cc1cccc(Br)c1 (stereo unspecified) yielded a melting point of 58 °C. O=C(O)[C@@H]1CSC(c2ccccc2O)N1C(=O)CCBr (stereo partly specified) gave a melting point of 109 to 115 °C. In the case of CC(=O)OCCn1c(C)nc2ccccc2c1=O, the melting point is reported as 158 to 160 °C. Work on OCc1cn(-c2ccc3c(c2)OC(F)(F)O3)cn1 yielded a melting point of 163 to 164 °C. CS(=O)(=O)c1cccc(C(=O)Nc2cc(C(=O)NCc3ccccc3)ccn2)c1 showed a melting point of 170 to 171 °C. Work on O=S(=O)(c1cccc(-c2cc(-c3nc(-c4ccc(C(F)(F)F)cc4)cc(C(F)(F)F)n3)ccn2)c1)N1CCOCC1 yielded a melting point of 202 °C. Work on N#Cc1cnn2c1N(C(=O)CCl)CCC2c1cccc(C(F)(F)F)c1 (stereo unspecified) yielded a melting point of 157 to 159 °C. With N#Cc1ccc2nc(C(=O)NCc3cccc(CNC(=O)c4nc[nH]n4)c3)[nH]c(=O)c2c1 the melting point was 218 to 219 °C. Work on COC(c1ccc(Cl)c2nc3n(c12)CCCN3c1ccc(Cl)cc1Cl)(C1CC1)C1CC1 yielded a melting point of 99 to 100 °C. Compound Nc1ncnc2c1ncn2CC(=O)Nc1ccc(-n2nc(C(F)(F)F)cc2C2CC2)cc1 has a melting point of 249 to 252 °C. COc1ccc(C(=O)c2ccc(OCc3nc(-c4ccccc4)oc3C)cc2)c(OC2(C(=O)O)CCC2)c1 gave a melting point of 199 to 201 °C. In the case of Nc1nc(Cl)nc(N(CCC(=O)O)Cc2ccc(Cl)c(Cl)c2)n1, the melting point is reported as 105 to 110 °C. For Nc1cc(Cl)c(Cl)c(Br)c1N, the melting point was 128 to 129 °C. With O=C(O)c1cc(N2C(=O)C3=C(CCCC3)C2=O)ccc1O the melting point was 240 °C. O=C(O)C(=O)c1ccc(OCCCc2ccc3ccccc3c2)cc1 gave a melting point of 123 to 124 °C. With NC(=O)c1c(Cl)c(-c2ccccc2)n2c1CN(S(=O)(=O)c1ccccc1)CC2 the melting point was 250 to 252 °C. For Cc1cc(-c2ccc(NC(=O)CCN3CCC(c4ccccc4)CC3)cc2)n[nH]c1=O, the melting point was 239 to 240 °C. Compound O=Cc1ccc(S(=O)(=O)CCCl)cc1Cl has a melting point of 117 to 119 °C. O=C(Nc1ccccc1)Nc1cccc(-c2c(-c3ccccc3)cnc3c(C(F)(F)F)cccc23)c1 showed a melting point of 202 to 205 °C. For C=Cc1ncc2c(c1COC)c1c(OCc3ccccc3)cccc1n2S(=O)(=O)c1ccc(C)cc1, the melting point was 141 to 143 °C. Work on COC(C)c1nc(C(C)(C)O)c(C(=O)O)n1Cc1ccc(-c2ccccc2-c2nnn[nH]2)cc1 (stereo unspecified) yielded a melting point of 174 to 185 °C. For COc1cnccc1C#N, the melting point was 66 to 67 °C. O=C(O)c1cnc2cc(O)cc(O)c2c1 showed a melting point greater than 260 °C. COC(=O)c1cc2cccnc2cc1C(=O)OC gave a melting point of 101 to 102 °C. In the case of CCCn1c2ccccc2c2c3c(nc(C)c21)CC(C)(C)CC3=O, the melting point is reported as 123 to 125 °C. Work on CC(C)OC(=O)c1ccccc1SNc1ccc(OC(F)(F)F)cc1 yielded a melting point of 120 to 121 °C. For CC(=O)Nc1cn2cc(Sc3ccccc3)ccc2n1, the melting point was 257 to 259 °C. Work on O=C(CCc1ccccc1)Nc1cccc(C(=O)NN=C2C(=O)Nc3ccc(I)cc32)c1 yielded a melting point of 293 °C. For O=C(CCCl)N(O)c1ccccc1, the melting point was 87 to 88 °C. CCOCc1cc2cc(Br)ccc2oc1=Nc1cccc(OC)c1 gave a melting point of 93 to 94 °C. In the case of O=C1c2ccccc2CC(=NO)c2ccccc21, the melting point is reported as 186 °C. Compound CCSc1nc(O)nn1CC has a melting point of 65 to 68 °C. O=C(NS(=O)(=O)c1ncccc1C(F)(F)F)Oc1ccccc1 showed a melting point of 130 to 134 °C. With CCC1=NNC(C)=C(C(=O)NN)C1c1cccc([N+](=O)[O-])c1 (stereo unspecified) the melting point was 98 °C. With O=C(O)c1cc(S(=O)(=O)N2CCC(CO)CC2)ccc1Cl the melting point was 185 to 187 °C. In the case of Nc1c(SC(F)(F)F)ncn1-c1c(Cl)cc(C(F)(F)F)cc1Cl, the melting point is reported as 134 °C. CC(C)(C)c1ccc(N2C[C@@H](COc3ccc(C(=O)O)cc3)CC2=O)cc1 gave a melting point of 247 to 248 °C. O=C1c2ccccc2C(=O)N1C/C=C/CCl gave a melting point of 108 to 110 °C. Cc1c(CN2CCc3c(c4cccc(Br)c4n3C)C2=O)ncn1S(=O)(=O)N(C)C gave a melting point of 182 to 185 °C. Cc1ccc(Cn2nnc(C(N)=O)c2N)cc1 showed a melting point of 223 to 225 °C. Work on COc1ccc([C@]2(C)C=Cc3cc(OC)ccc3[C@H]2C=O)cc1 (relative stereo) yielded a melting point of 127 °C. With COc1ccc(C)cc1NC(=O)Nc1ccc(C2CCN(C(=O)Nc3ncccc3CO)CC2)cc1 the melting point was 105 to 110 °C. With Cc1cc(C(=O)NCc2ccc(Br)cc2F)c(O)cc1F the melting point was 149 to 150 °C. COc1ccc(Cn2c(=O)c3c(c4ccccc42)OC(C)(C)[C@@H](O)[C@@H]3NC(=O)CCCCl)cc1 (relative stereo) gave a melting point of 218 to 219 °C. In the case of CC1(C)CC(OC(=O)CCl)CC(C)(C)N1OC1CCCCC1, the melting point is reported as 62 to 64 °C. For Cc1cc(=O)n2cccc(OCc3ccc(Cl)cc3Cl)c2n1, the melting point was 180 to 182 °C. Cc1cc(=O)c(OCc2ccccc2)c(C(=O)NC2CCC2)o1 gave a melting point of 69.3 to 71 °C. Compound Cc1cccnc1-c1ccccc1Nc1nc(Nc2ccc3c(c2)C(C)(C)CCC(=O)N3)ncc1Cl has a melting point of 130 to 135 °C. Compound COCCn1cc2c(C3C(=O)Nc4ccc(Br)cc43)nc(NCC(C)O)nc2n1 (stereo unspecified) has a melting point greater than 300 °C. In the case of Cc1cc(-c2ncn3c(C(F)(F)F)cc(-c4ccc(Br)cc4)nc23)ccn1, the melting point is reported as 249 °C. With CC(C)(C)c1ccc(C(=O)Nc2cn3nc(NCc4cccnc4)ccc3n2)cc1 the melting point was 232 to 233 °C. Work on COc1ccc(-c2nnc(C(C)C)n2-c2ccc(OC)cc2)cc1 yielded a melting point of 162 °C. With COc1ccc(C(=O)Oc2ccc(C(=O)O)cc2)cc1C12CC3CC(CC(C3)C1)C2 the melting point was 265 to 267 °C. COc1nc(C)nc(NC(=O)NS(=O)(=O)c2cccc3c2C(Cl)=CC3)n1 showed a melting point of 168 to 170 °C.

Source: a melting point compilation (Tetko et al.; mined from patent text by program, amines drawn as free bases though some values may be those of a salt)
